From patent US11274097B2, “2-(het)aryl-substituted condensed bicyclic heterocycle derivatives as pest control agents” (BAYER CROPSCIENCE AKTIENGESELLSCHAFT, priority 2014, dated 2022)
Values joined by “and” are separate entries in the source; they are usually repeats but may differ in a detail not shown here. Equal values may be shown once.

Key:
[1] = test system: Tetranychus urticae; test: Tetranychus urticae spray test, OP-resistant (TETRUR); type: in vivo; conditions: application rate 500 g/ha; bean leaf discs; after 6 days
Method: Tetranychus urticae—Spray Test, OP-Resistant (TETRUR)
(§1) Solvent: 78.0 parts by weight of acetone • • 1.5 parts by weight of dimethylformamide
(§2) Emulsifier: alkylaryl polyglycol ether
(§3) To produce an appropriate active ingredient formulation, 1 part by weight of active ingredient is dissolved using the stated parts by weight of solvent and made up with water containing an emulsifier concentration of 1000 ppm until the desired concentration is attained. To produce further test concentrations, the preparation is diluted with emulsifier-containing water.
Discs of bean leaves (Phaseolus vulgaris) infested by all stages of the greenhouse red spider mite (Tetranychus urticae) are sprayed with an active ingredient formulation of the desired concentration.
After 6 days, the efficacy in % is determined. 100% means that all the spider mites have been killed; 0% means that none of the spider mites have been killed.

[2] = test system: Myzus persicae; test: Myzus persicae spray test (MYZUPE), Chinese cabbage leaf discs; type: in vivo; conditions: application rate 500 g/ha, after 6 days
Method: (§4) Myzus persicae—Spray Test (MYZUPE)
Solvent: 78 parts by weight of acetone • • 1.5 parts by weight of dimethylformamide
(§5) Emulsifier: alkylaryl poly glycol ether
as §3
Discs of Chinese cabbage leaves (Brassica pekinensis) infested by all stages of the green peach aphid (Myzus persicae) are sprayed with an active ingredient formulation of the desired concentration.
After 6 days, the efficacy in % is determined. 100% means that all the aphids have been killed; 0% means that none of the aphids have been killed.

[3] = log P by HPLC on a reversed-phase column (C 18), EEC Directive 79/831 Annex V.A8; type: physicochemical; conditions: 55° C.; for LOGP_HCOOH: acidic range, pH 2.7, 0.1% aqueous formic acid/acetonitrile; for LOGP_NEUTRAL: neutral range, pH 7.8, 0.001 molar aqueous ammonium hydrogencarbonate/acetonitrile
Method: The log P values are measured according to EEC Directive 79/831 Annex V.A8 by HPLC (high-performance liquid chromatography) on a reversed-phase column (C 18). Temperature: 55° C. The LC-MS determination in the acidic range is effected at pH 2.7 using 0.1% aqueous formic acid and acetonitrile (contains 0.1% formic acid) as eluents, linear gradient from 10% acetonitrile to 95% acetonitrile. Called log P (HCOOH) in the table. LC-MS determination in the neutral range is effected at pH 7.8 with 0.001 molar aqueous ammonium hydrogencarbonate solution and acetonitrile as eluents; linear gradient from 10% acetonitrile to 95% acetonitrile. Called log P (neutral) in the table. Calibration is effected with unbranched alkan-2-ones (having 3 to 16 carbon atoms) with known log P values (log P values determined on the basis of the retention times by linear interpolation between two successive alkanone s).

[4] = test system: Phaedon cochleariae; test: Phaedon cochleariae spray test (PHAECO); type: in vivo; conditions: larvae, after 7 days
Method: Phaedon cochleariae—Spray Test (PHAECO)
as §1, §2, §3
Discs of Chinese cabbage leaves (Brassica pekinensis) are sprayed with an active ingredient formulation of the desired concentration and, after drying, populated with larvae of the mustard beetle (Phaedon cochleariae).
After 7 days, the efficacy in % is determined. 100% means that all the beetle larvae have been killed; 0% means that no beetle larvae have been killed.

[5] = test system: Spodoptera frugiperda; test: Spodoptera frugiperda spray test (SPODFR); type: in vivo; conditions: application rate 500 g/ha; maize leaf discs; after 7 days
Method: Spodoptera frugiperda—Spray Test (SPODFR)
as §1, §2, §3
Leaf discs of maize (Zea mays) are sprayed with an active ingredient formulation of the desired concentration and, after drying, populated with caterpillars of the armyworm (Spodoptera frugiperda).
After 7 days, the efficacy in % is determined. 100% means that all the caterpillars have been killed; 0% means that no caterpillars have been killed.

[6] = test system: Myzus persicae; test: Myzus persicae spray test (MYZUPE), bell pepper plants; type: in vivo; conditions: application rate 100 ppm, after 6 days
Method: as §4
(§6) Solvent: 7 parts by weight of dimethylformamide
as §5
as §3, with “water. If the addition of ammonium salts or/and penetrants is required, these are each added in a concentration of 1000 ppm to the formulation solution.” for “water.”
Bell pepper plants (Capsicum annuum) heavily infested by the green peach aphid (Myzus persicae) are treated by spraying with the active ingredient formulation in the desired concentration.
After 6 days, the kill in % is determined. 100% means that all the aphids have been killed; 0% means that no aphids have been killed.

[7] = test system: Meloidogyne incognita; test: Meloidogyne incognita test; type: in vivo; conditions: application rate 20 ppm; lettuce; after 14 days
Method: Meloidogyne incognita Test Solvent: 125.0 parts by weight of acetone To produce a suitable active ingredient formulation, 1 part by weight of active ingredient is mixed with the stated amount of solvent and the concentrate is diluted with water to the desired concentration. Vessels are filled with sand, active ingredient solution, an egg/larvae suspension of the southern root-knot nematode (Meloidogyne incognita) and lettuce seeds. The lettuce seeds germinate and the plants develop. The galls develop on the roots. After 14 days, the nematicidal efficacy in % is determined by the formation of galls. 100% means that no galls were found; 0% means that the number of galls on the treated plants corresponds to the untreated control.

[8] = test system: Lucilia cuprina; test: Lucilia cuprina test (LUCICU); type: in vivo; conditions: application rate 100 ppm; L1 larvae; after 2 days
Method: Lucilia cuprina Test (LUCICU) Solvent: dimethyl sulphoxide To produce an appropriate active ingredient formulation, 10 mg of active ingredient are mixed with 0.5 ml of dimethyl sulphoxide, and the concentrate is diluted with water to the desired concentration. About 20 L1 larvae of the Australian sheep blowfly (Lucilia cuprina) are transferred into a test vessel containing minced horsemeat and the active ingredient preparation of the desired concentration. After 2 days, the kill in % is determined. 100% means that all the larvae have been killed; 0% means that none of the larvae have been killed.

[9] = test system: Ctenocephalides felis; test: Ctenocephalides felis in vitro contact test; type: in vivo; conditions: application rate 5 μg/cm^2; adult cat fleas; after 48 h
Method: Ctenocephalides felis—In Vitro Contact Test
For the coating of the test tubes, 9 mg of active ingredient are first dissolved in 1 ml of acetone p.a. and then diluted to the desired concentration with acetone p.a. 250 μl of the solution are distributed homogeneously on the inner walls and base of a 25 ml test tube by turning and rocking on an orbital shaker (rocking rotation at 30 rpm for 2 h). With 900 ppm active ingredient solution and internal surface 44.7 cm^2, given homogeneous distribution, an area-based dose of 5 μg/cm^2 is achieved.
After the solvent has evaporated off, the tubes are populated with 5-10 adult cat fleas (Ctenocephalides felis), sealed with a perforated plastic lid and incubated in a horizontal position at room temperature and ambient humidity. After 48 h, efficacy is determined. To this end, the test tubes are stood upright and the fleas are knocked to the base of the tube. Fleas which remain motionless at the base or move in an uncoordinated manner are considered to be dead or moribund.
100% efficacy means that all the fleas were dead or moribund. 0% efficacy means that no fleas were harmed.

[10] = test system: Myzus persicae; test: Myzus persicae translaminar test (MYZUPE t); type: in vivo; conditions: 14 dat
Method: Myzus persicae—Translaminar Test (MYZUPE t)
as §6, §5
(§7) To produce an appropriate active ingredient formulation, 1 part by weight of active ingredient is dissolved using the stated parts by weight of solvent and made up with water containing an emulsifier concentration of 1000 ppm until the desired concentration is attained. To produce further test concentrations, the preparation is diluted with emulsifier-containing water. In the event that addition of ammonium salts or/and penetrants (rapeseed oil methyl ester) is required, these are each pipetted in a concentration of 1000 ppm after the finished formulation solution has been diluted.
One-leaved bell pepper plants (Capsicum annuum) heavily infested by the green peach aphid (Myzus persicae) are treated by spraying the top side of the leaf with the active ingredient formulation in the desired concentration.
(§8) After the desired time, the kill in % is determined. 100% means that all the aphids have been killed and 0% means that none of the aphids have been killed.

[11] = test system: Nilaparvata lugens; test: Nilaparvata lugens test (NILALU); type: in vivo; conditions: 4 ppm
Method: Nilaparvata lugens Test (NILALU)
as §6, §2, §7
Rice plants (Oryza sativa, var. Balilla) are treated by spraying with the active ingredient formulation in the desired concentration and then populated with L3 larvae of the brown planthopper (Nilaparvata lugens).
After the desired time, the feeding damage in % is determined. 100% means that no feeding damage is found; 0% means that the feeding damage to the treated plant corresponds to that of the untreated control.

[12] = test system: Myzus persicae; test: Myzus persicae contact test (MYZUPE c); type: in vivo; conditions: 2.4 g/ha, 14 dat
Method: Myzus persicae—Contact Test (MYZUPE c)
as §6, §5, §7
One-leaved bell pepper plants (Capsicum annuum) heavily infested by the green peach aphid (Myzus persicae) are treated by spraying the underside of the leaf with the active ingredient formulation in the desired concentration.
as §8

[13] = test system: Aphis gossypii; test: Aphis gossypii translaminar test (APHIGO t); type: in vivo; conditions: 2.4 g/ha, 7 dat
Method: Aphis gossypii—Translaminar Test (APHIGO t)
as §6, §2, §7
One-leaved cotton plants (Gossypium hirsutum) heavily infested by the cotton aphid (Aphis gossypii) are treated by spraying the top side of the leaf with the active ingredient formulation in the desired concentration.
as §8

[14] = test system: Nephotettix cincticeps; test: Nephotettix cincticeps test (NEPHCI); type: in vivo; conditions: 0.16 ppm
Method: Nephotettix cincticeps Test (NEPHCI)
as §6, §2, §7
Rice plants (Oryza sativa, var. Balilla) are treated by spraying with the active ingredient formulation in the desired concentration and then populated with larvae of the green rice leafhopper (Nephotettix cincticeps).
After the desired time, the kill in % is determined. 100% means that all leafhoppers have been killed; 0% means that none of the leafhoppers have been killed.

[15] = test system: Aphis gossypii; test: Aphis gossypii contact test (APHIGO c); type: in vivo; conditions: 2.4 g/ha, 7 dat
Method: Aphis gossypii—Contact Test (APHIGO c)
as §6, §2, §7
One-leaved cotton plants (Gossypium hirsutum) heavily infested by the cotton aphid (Aphis gossypii) are treated by spraying the underside of the leaf with the active ingredient formulation in the desired concentration.
as §8

Compound	efficacy [1]	efficacy [2]	LOGP_HCOOH [3]	LOGP_NEUTRAL [3]	efficacy ([4]; application rate 500 g/ha)	efficacy [5]	also measured
CCSc1ccc(Cl)cc1-c1nc2cc(C(F)(F)F)ncc2n1C [Example I-19]	90%	90%	3.43	3.38	100%	83%	–
CCSc1cc(Cl)ccc1-c1nc2cc(C(F)(F)F)ncc2n1C [Example I-42]	90%	90%	3.46	3.39	100%	100%	–
Cn1c(-c2ccc(Cl)cc2S(C)(=O)=O)nc2cc(C(F)(F)F)ncc21 [Example I-11]	–	–	2.39	2.34	–	–	efficacy (kill) [6]: 97%; efficacy ([4]; application rate 100 g/ha): 100%
CCS(=O)(=O)c1cccnc1-c1nc2cc(C(F)(F)C(F)(F)F)ncc2n1C [Example I-68]	100%	90%	2.50	2.46	100%	100%	nematicidal efficacy (formation of galls) [7]: 100%
CCS(=O)(=O)c1ccccc1-c1nc2cc(C(F)(F)F)ncc2n1C [Example I-18]	–	100% and 90%	2.13	2.11	100%	–	efficacy (kill) [8]: 100%; efficacy [9]: 100%
CCS(=O)(=O)c1cc(C(F)(F)F)cnc1-c1nc2cc(C(F)(F)F)cnc2n1C [Ex. 5 known from WO2013018928]	–	–	–	–	–	–	% efficacy ([10]; 2.4 g/ha): 0%; % efficacy ([10]; 12 g/ha): 0%; % efficacy ([11]; 21 dat): 35%; % efficacy ([11]; 28 dat): 20%; % efficacy [12]: 50%; % efficacy [13]: 0%; % efficacy ([14]; 14 dat): 0%; % efficacy ([14]; 21 dat): 0%; % efficacy ([14]; 34 dat): 0%; % efficacy [15]: 15%
